Laboratory results reported in patent EP2924039A1, “2-Amino-1-phenyl-pyrrolo[3,2-b]quinoxaline-3-carboxamide derivates” (Universität Zürich, priority 2014, dated 2015).

Legend:
[1] = tested on: MDA-MB-231 (breast cancer) cells; assay: Cell culture and GI50 determination (resazurin), MDA-MB-231; type: cell-based; conditions: Homo sapiens, MDA-MB-231, 72 h
Method: (§1) Krek (Institute of Cell Biology, ETH Zurich) were cultured in Dulbelcco's modified Eagle's medium (DMEM) supplemented with 10% (v/v) fetal bovine serum. K562 leukemia cells obtained from Dr. Silvio Hemmi (Institute of Molecular Life Sciences, UZH) were cultured using RPMI medium supplemented with 5% (v/v) fetal bovine serum. All the media was additionally supplemented with 100 units/mL of penicillin, 100µg/mL of streptomycin, 4.5 g/L glucose, 0.11g/L sodium pyrubate and 2mM glutamine and the cells were grown at 37°C in 5% CO2 atmosphere with 80% relative humidity.
(§2) The old media was removed, the cells were washed with PBS (phosphate-buffered saline) and fresh media was added. […] Control cells were treated with the same DMSO concentrations. […] After 3 hours, the fluorescence was quantified using a fluorescence microplate reader (Biotek, FLx800™) at the respective excitation and emission wavelength of 560 and 590 nm. Resazurin becomes fluorescent under mitochondrial reduction and its emission directly correlates with the metabolic stability of the cells. […] All measurements were performed at least in triplicate (see table 1).

K-562 leukemia cells = assay: Cell culture and GI50 determination (resazurin), K-562; type: cell-based; conditions: Homo sapiens, K562, K-562, 48 hour incubation
Method: as §1
After 24 hours, 12.5 µL of a 10 fold concentrated drug or DMSO solution in RMPI media was added in every well. After 48 hour incubation, cell viability was studied by measuring the ability of the cells to process resazurin.

[2] = tested on: A498 (kidney cancer) cells; assay: Cell culture and GI50 determination (resazurin), A-498; type: cell-based; conditions: Homo sapiens, A-498, 48h incubation
Method: as §1, §2

HT-29 = assay: Cell culture and GI50 determination (resazurin), HT-29; type: cell-based; conditions: Homo sapiens; HT-29, resazurin
Method: as §2

[3] = tested on: KM12 (colon cancer) cells; assay: Cell culture and GI50 determination (resazurin), KM12; type: cell-based; conditions: Homo sapiens
Method: as §1, §2

[4] = tested on: HOP-92 (lung cancer) cells; assay: Cell culture and GI50 determination (resazurin), HOP-92; type: cell-based; conditions: Homo sapiens; HOP-92, resazurin
Method: as §1, §2

EphA3 = target: T1, EphA3 (Homo sapiens, UniProt P29320); assay: Differential Scanning Fluorimetry; type: binding; conditions: 2 µM EphA3, compound 20µM; read-out: Delta Tm
T1 construct: A clone of EphA3 kinase domain (residues: 606-947); made in house; host or cells: Escherichia coli BL21 (DE3)
T1 sequence (P29320 606-947): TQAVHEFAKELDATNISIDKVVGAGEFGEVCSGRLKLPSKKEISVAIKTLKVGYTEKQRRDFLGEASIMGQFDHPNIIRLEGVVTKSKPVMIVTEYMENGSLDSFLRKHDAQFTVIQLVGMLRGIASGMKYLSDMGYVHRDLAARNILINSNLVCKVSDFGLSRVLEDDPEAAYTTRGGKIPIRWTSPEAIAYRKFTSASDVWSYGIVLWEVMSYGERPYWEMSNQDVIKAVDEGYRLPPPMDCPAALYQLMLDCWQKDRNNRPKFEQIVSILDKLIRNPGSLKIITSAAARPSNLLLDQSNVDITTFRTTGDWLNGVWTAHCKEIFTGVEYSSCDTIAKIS
Method: Cell pellets were resuspended in buffer A (50mM Tris, pH 8.0 and 100mM NaCl, supplemented with protease inhibitors) and lysed by sonication. After centrifugation at 15,000 rpm for 1 h, the soluble fraction of EphA3 was purified using […] (GE healthcare), followed by gel filtration chromatography (Superdex75; GE healthcare). The appropriate fractions were combined and concentrated to ~10 mg/mL using Amicon filter devices (10kDa as cutoff) in a storage solution (100mM sodium chloride and 10mM Tris-HCl pH 8.0, 5% glycerol). The resulting solution was aliquoted and stored at -80°C for further usage.
A final volume of 40µL was added per well in a 96 well plate and incubated at room temperature for 1 h. The plates were centrifuged for 3 min at 450 rcf. The temperature gradient was performed in the range of 25°C-75°C (50 acquisitions per degree at a ramp rate of 4.4°C/s) using a LightCycler 480 Real-Time PCR System. […] All measurements were performed in triplicate.

full-length human EphB4 = target: T2, full-length human EphB4 (Homo sapiens, UniProt P54760); assay: Cellular phosphorylation assay (sandwich ELISA, ProQinase); type: cell-based; conditions: mouse embryonic fibroblast cells overexpressing EphB4, stimulated with murine ephrinB2-Fc, read-out: cell IC50
T2 construct: stably transfected to overexpress full-length human EphB4; host or cells: Mouse embryonic fibroblast cells
T2 sequence (P54760 16-987): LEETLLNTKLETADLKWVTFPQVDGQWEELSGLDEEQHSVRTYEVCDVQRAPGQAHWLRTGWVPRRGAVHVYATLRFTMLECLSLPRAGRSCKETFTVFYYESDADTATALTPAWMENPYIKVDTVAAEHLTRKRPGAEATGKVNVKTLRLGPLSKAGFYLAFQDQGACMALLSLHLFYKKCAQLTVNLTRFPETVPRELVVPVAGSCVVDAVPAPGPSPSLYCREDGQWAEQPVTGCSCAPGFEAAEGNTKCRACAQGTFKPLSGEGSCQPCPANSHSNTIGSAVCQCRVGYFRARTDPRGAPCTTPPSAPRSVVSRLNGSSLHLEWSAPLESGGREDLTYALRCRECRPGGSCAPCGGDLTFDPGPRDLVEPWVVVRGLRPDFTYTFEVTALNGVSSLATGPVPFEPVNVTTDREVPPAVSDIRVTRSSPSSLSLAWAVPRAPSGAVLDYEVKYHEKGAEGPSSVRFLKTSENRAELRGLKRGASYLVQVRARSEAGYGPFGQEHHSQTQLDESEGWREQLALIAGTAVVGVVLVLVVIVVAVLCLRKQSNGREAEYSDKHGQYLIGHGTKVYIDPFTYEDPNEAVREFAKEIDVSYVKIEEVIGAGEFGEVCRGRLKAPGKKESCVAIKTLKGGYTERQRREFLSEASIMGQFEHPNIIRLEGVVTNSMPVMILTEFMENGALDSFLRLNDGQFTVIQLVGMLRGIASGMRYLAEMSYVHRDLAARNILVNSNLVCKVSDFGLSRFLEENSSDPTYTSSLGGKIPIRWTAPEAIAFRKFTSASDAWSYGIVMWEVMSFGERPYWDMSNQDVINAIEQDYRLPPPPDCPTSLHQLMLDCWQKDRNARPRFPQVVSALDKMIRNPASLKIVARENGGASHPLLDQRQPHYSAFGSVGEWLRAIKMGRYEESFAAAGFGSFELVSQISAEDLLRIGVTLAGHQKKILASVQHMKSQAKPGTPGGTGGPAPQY
Method: Cellular phosphorylation assays: The cellular phosphorylation experiments were performed at ProQinase GmbH. Mouse embryonic fibroblast cells, stably transfected to overexpress full-length human EphB4, were plated at 4×10^4 cells/well in DMEM supplemented with 10% FCS in 48-well culture dishes. Medium was replaced by DMEM without FCS before test compounds prediluted in 100% DMSO were added (final DMSO concentration of 1 %). After incubation for 90 min at 37 °C, cells were stimulated for 2 h at 4 °C using murine ephrinB2-Fc at a final concentration of 2 µg/ml. Quantification of EphB4 phosphorylation was assessed in a 96-well plate via sandwich ELISA using a myc capture antibody and an antiphosphotyrosine detection antibody. Table 4: Cell IC50 (µmol/l) in cells overexpressing EphB4

[5] = tested on: panel of 456 protein kinases; assay: Selectivity profiling at DiscoveRx (KinomeScan); type: binding; conditions: 1 µM compound; for one or more of the protein kinases listed
Method: The selectivity profiling of compounds 10c, 10d, 10n and 10o were performed at DiscoveRx in a library of 456 kinases at a concentration of 1 µM. Briefly, kinases were mostly expressed as fusion proteins to […] and grown in 24-well blocks in E. Coli (derived from the BL21 strain). The rest of the kinases were expressed in HEK-293 cells and tagged with DNA for qPCR detection. Affinity resins were generated by mixing streptavidin-coated magnetic beads with biotinylated small molecule ligands for 30 minutes at 25 °C, followed by biotin and blocking buffer addition (SeaBlock (Pierce), 1 % BSA, 0.05 % Tween 20, 1 mM DTT). Inhibitors were kept at 40x stocks in 100% DMSO and added to the corresponding 384-well plates (40 µL). […] The kinase concentration present in the eluate was determined by qPCR. For further details, see Fabian, et. al., Nat. Biotechnol., 2005, 23 (3), 329-33.

IC50 (full-length human EphB4) [µM] | control binding to the kinase in presence of the compound relative to control binding in absence of the compound [5] | Structure (SMILES) | GI50 [1] [µM] | GI50 (K-562 leukemia cells) [µM] | GI50 [2] [µM] | GI50 (HT-29) [µM] | GI50 [3] [µM] | GI50 [4] [µM] | ΔTm at 20 µM (EphA3) [°C]
– | – | Cc1ccc(NC(=O)c2cccc(C(F)(F)F)c2)cc1-n1c(N)c(C(N)=O)c2nc3ccccc3nc21 [Compound 10g, 2-amino-1-(2-methyl-5-(3-(trifluoromethyl)benzamido)phenyl)-1H-pyrrolo[2,3-b]quinoxaline-3-carboxamide] | 3.88 | 0.73 | 2.5 | 5.87 | 0.8 | 4.23 | 12.3
– | – | NC(=O)c1c(N)n(-c2cc(NC(=O)c3cccc(C(F)(F)F)c3)ccc2F)c2nc3ccccc3nc12 [Compound 10h, 2-amino-1-(2-fluoro-5-(3-(trifluoromethyl)benzamido)phenyl)-1H-pyrrolo[2,3-b]quinoxaline-3-carboxamide] | 1.44 | 0.37 | 1.88 | 1.8 | 2.16 | 2.06 | 10.9
– | – | Cc1ccc(C(=O)Nc2cccc(C(F)(F)F)c2)cc1-n1c(N)c(C(N)=O)c2nc3ccccc3nc21 [Compound 10i] | 1.32 | 0.036 | 2.07 | 2.82 | 1.57 | 1.92 | 14.4
– | – | NC(=O)c1c(N)n(-c2cc(C(=O)Nc3cccc(C(F)(F)F)c3)ccc2F)c2nc3ccccc3nc12 [Compound 10j] | 2.69 | 0.081 | 2.44 | 2.97 | 1.87 | 2.12 | 13
– | – | NC(=O)c1c(N)n(-c2ccc(NC(=S)Nc3cccc(C(F)(F)F)c3)cc2)c2nc3ccccc3nc12 [Compound 10k, 2-amino-1-(4-(3-(3-(trifluoromethyl)phenyl)thioureido)phenyl)-1H-pyrrolo[2,3-b]quinoxaline-3-carboxamide] | 9.63 | 5.07 | 8.73 | 16.3 | 2.52 | 4.25 | 9.9
– | – | Cc1cn(-c2cc(NC(=O)c3ccc(C)c(-n4c(N)c(C(N)=O)c5nc6ccccc6nc54)c3)cc(C(F)(F)F)c2)cn1 [Compound 10l] | 3.05 | 0.029 | 5.71 | 4.36 | 2.84 | 3.01 | 16.2
– | – | Cc1cn(-c2cc(C(=O)Nc3ccc(C)c(-n4c(N)c(C(N)=O)c5nc6ccccc6nc54)c3)cc(C(F)(F)F)c2)cn1 [Compound 10m] | 1.93 | 0.03 | 4.01 | 13.4 | 2.54 | 5.12 | 15.8
1.1 | less than 10% of control | CC(C)(C)c1cc(NC(=O)Nc2ccc(-n3c(N)c(C(N)=O)c4nc5ccccc5nc43)cc2)n(-c2ccc3ncccc3c2)n1 [Compound 10n, 2-amino-1-(4-(3-(5-tert-butyl-2-quinolin-6-yl-2H-pyrazol)ureido)phenyl)-1H-pyrrolo[2,3-b]quinoxaline-3-carboxamide] | 0.21 | 0.003 | 0.73 | 1.25 | 0.15 | 0.45 | 19.3
0.37 | less than 10% of control | Cc1ccc(-n2nc(C(C)(C)C)cc2NC(=O)Nc2ccc(-n3c(N)c(C(N)=O)c4nc5ccccc5nc43)cc2)cc1 [Compound 10o] | 0.98 | 0.02 | 1 | 0.78 | 0.21 | 1.48 | 17.3
– | – | NC(=O)c1c(N)n(-c2ccc(NC(=O)Nc3cccc(C(F)(F)F)c3)cc2)c2nc3ccccc3nc12 [Compound 10p, 2-amino-1-(4-(3-(3-(trifluoromethyl)phenyl)ureido)phenyl)-1H-pyrrolo[2,3-b]quinoxaline-3-carboxamide] | 10.3 | 5.45 | 10.8 | 18 | 0.67 | 10 | –
